How the values were obtained:
LNCaP tumor cells = experiment: AED-stimulated LNCaP tumor model, effect of dose on tumor incidence; format: in vivo, SCID mice; details: for mean tumor volume in the animals that developed tumors: 28 days, vehicle 157 mm^3; for tumor incidence (compared to vehicle): daily for 28 days from 24 hours after tumor inoculation
Protocol: (§1) Castrated SCID mice (six week-old) were implanted with a 5 mg AED, 60-day time-release pellet (Innovative Labs, Sarasota Fla.). After three days, all mice were injected subcutaneously in the right flank with 100 μL of 7.5×10^6 LNCaP tumor cells in phenol red-free RPMI mixed 1:1 with Matrigel. Tumor volumes were measured weekly and calculated as a2×b/2 with a being the width and b the length of the tumor in millimeters (reported as mm^3).
To test the effect of dose on tumor incidence, a total of 48 castrated male SCID mice were implanted with LNCaP tumor cells as described, and the mice were randomly divided into 4 groups of 12 animals each to provide vehicle control (30% cyclodextrin-sulfobutylether in water) group and treatment groups using 4 mg/mouse/day, 1 mg/mouse/day, and 0.4 mg/mouse/day). Treatment groups used a liquid formulation prepared by dissolving a solid state form of 17α-ethynyl-androst-5-ene-3α,17β-diol (Compound 1) in vehicle, which provided 20 mg Compound 1 per mL in 30% cyclodextrin-sulfobutylether in water. The liquid formulation so prepared was administered 24 hours after tumor inoculation as a 200 μL intraperitoneal (ip) injection. All animals were dosed daily for 28 consecutive days and tumor volumes were measured weekly.
(§2) Statistical analysis: Time to first measurable tumor volume was analyzed via Kaplan-Meier product limit estimates, with the exact log-rank test applied to test for the significance of the difference. Reduction of tumor volume is defined as a reduction in volume of at least 20% of the baseline volume, persisting to the end of the study. To detect the difference between active and control group, Fisher's exact test and exact 95% Cl for the difference was applied. A tumor of non-measurable volume is a tumor that, with the methodology at hand, measures 0 to the end of the study. The growth rate of a tumor was also analyzed via the mixed model.

established LNCaP tumors = experiment: AED-stimulated LNCaP tumor model, effect on established LNCaP tumors; format: in vivo, SCID mice; details: 4 mg/mouse/day once a day for three weeks
Protocol: as §1
To test the effect of a Compound 1 on established LNCaP tumors, 36 castrated SCID mice received AED pellets and were inoculated with LNCaP tumors and monitored as described above. Once the tumors reach 15-25 mm^3, the mice were paired by tumor volume, and each mouse in a pair was assigned to the vehicle or 4 mg/mouse/day Compound 1 group. Animals were dosed once a day for three weeks.
as §2

LNCaP Cells [1] = experiment: Cell cycle analysis of LNCaP cells (DAPI, cytometer); format: cell-based; details: 50 nM, four days, LNCaP cells in FBS or CSS
Protocol: (§3) LNCaP Cells (5×10^5) were seeded in phenol-red free RPMI with 5% hormone depleted charcoal stripped serum (CSS) in 6-well plates and allowed to adhere overnight, then cultured in fetal bovine serum (FBS) or CSS with or without 50 nM Compound 1 for four days. At the end of the incubation period, floating and adherent cells were harvested for cell cycle analysis. LNCaP cells were resuspended in a […] solution of 4,6-diamidino-2-phenylindole (DAPI) and 0.1% NP-40 in a Tris-buffered saline solution (pH 7.0) and analyzed using an Influx cytometer (Cytopiea, Seattle, Wash.). Analyses were performed with MultiCycle software (Phoenix Flow Systems, San Diego, Calif.). The Annexin V-FITC Apoptosis Detection Kit (Calbiochem, La Jolla, Calif.) was used according to the instructions of the manufacturer to detect apoptosis.

LNCaP Cells [2] = experiment: Annexin V-FITC apoptosis detection in LNCaP cells; format: cell-based; details: 50 nM, four days
Protocol: as §3

[3] = tested on: breast tumors induced by the administration of the carcinogen N-methyl-nitrosourea (NMU); experiment: MNU stimulated breast tumor model; format: in vivo, Lewis rats
From the text: The following study determined the effect of a formulation prepared with a polymorph of 17α-ethynyl-androst-5-ene-3α,17β-diol (Crystalline Form III of Compound 1) on the rate of growth and incidence of breast tumors induced by the administration of the carcinogen N-methyl-nitrosourea (NMU). Additionally, the activity of Compound 1 was compared to TAMOXIFEN™ ((Z)-2-[4-(1,2-diphenylbut-1-enyl)phenoxy]-N,N-dimethyl-ethanamine), ARIMIDEX™ (anastrozole) and TAXOTERE™ (docetaxel), which are drugs currently used to treat breast cancer.
Seven week old female Lewis rats (150 animals, 104 required for the study) were anesthetized with isoflurane for NMU administration. NMU was the administered ip. at a dose of 50 mg/Kg. Mammary tumors that developed were measured using a vernier caliper with two axes of the tumor measured in cm. Treatment commenced using a liquid formulation of Compound 1, prepared by dissolving crystalline […] in vehicle, when rats have a tumor volume of 0.5 cm×0.5 cm (at about 12-20 week of age). Treatment continued for 28 consecutive days, followed by 28 days of observation.
The experimental groups were Negative control group (no treatment), Vehicle control group (30% cyclodextrin-sulfobutylether in water), two treatment groups (8 mg/rat and 4 mg/rat), three standard therapy groups using an estrogen blocker (TAMOXIFEN™), an aromatase inhibitor (ARIMIDEX™), a cytotoxic agent (TAXOTERE™) and a combination treatment group receiving Compound 1 (8 mg/kg) and TAXOTERE™.

[4] = Interconversion of crystalline forms in methanol-water (XRPD); format: physicochemical
Protocol: Form III Compound 1 (77.1 mg) was added to a glass vial, followed by MeOH (0.8 mL) and a stirring bar. The sample was placed in an oil bath at 65° C. and solids completely dissolved. Additional Form III was added so that excess solids remained and the mixture stirred for about 20 minutes. Additional MeOH (0.2 mL) was added and the mixture was hot filtered into a clean vial using a 0.2 μm nylon filter, and the filtrate was then placed in the oil bath at 65° C. Water (1 mL) was added and the mixture cooled to 20° C. over 2 hours. […] Form I was also produced from a slurry of Form III in 1:1 methanol water or 3:1 methanol:water that is seeded with samples having XRPD patterns of Form IV, Form V, Form VI, Form VII and Form VIII and stirred for 5 da at about 65° C. or 7 da at about 5° C.

[5] = Vapor stressing of melt-quenched amorphous Compound 1; format: physicochemical
Protocol: Amorphous compound 1, with varying degrees of crystallinity was also obtained form melt-quenching Form III according to the following procedure. Form III was lightly crushed with a spatula in a vial that was then placed in an oilbath set at 175° C. A nitrogen stream was run through the vial and the vial kept in the oilbath until the sample had melted. The vial was then removed and quickly placed in a bath containing dry ice with acetone. The sample was placed in a freezer under desiccant and analyzed by XRPD for crystallinity.
The propensity of amorphous material to convert to various crystalline forms was studied by vapor stressing melt-quenched Compound 1, prepared from Form III by the immediately preceding procedure.

[6] = Reanalysis of crystalline forms after prolonged standing; format: physicochemical
From the text: Thus, crystalline Form V of 17α-ethynyl-androstane-3α,17β-diol is an anhydrate (i.e., has no solvent in its crystal structure).
Prior to dissolution of Form VI for NMR analysis, the Form VI sample was washed with CCl4 to remove non-specifically absorbed surface solvent. Proton NMR spectroscopy thus indicates Form VI is a dioxane solvate, which is supported by the DTA/TGA data, and is most likely a mono dioxane solvate based upon integration of the δ 3.64 ppm resonance and the weight loss in TGA. After prolonged standing at ambient temperature and pressure, the Form VI sample was reanalyzed by DTA/TGA and proton NMR. […] Thus, desolvation of Form VI may occur if storage precautions are inadequate and may be accompanied by a polymorphic transition to a more thermodynamically stable form such as Form III.
Thus, crystalline Form VII of 17α-ethynyl-androstane-3α,17β-diol is most likely an anhydrate (i.e., has no solvent in its crystal structure).

C#C[C@]1(O)CC[C@H]2[C@@H]3CC[C@H]4C[C@H](O)CC[C@]4(C)[C@H]3CC[C@@]21C [Compound 1, 17-Ethynyl-10R,13S-dimethyl-2,3,4,5S,6,7,8R,9S,10,11,12,13,14S,15,16,17-hexadecahydro-1H-cyclopenta[a]phenanthrene-3S,17S-diol]
mean tumor volume in the animals that developed tumors (LNCaP tumor cells; 0.4 mg/mouse/day ip): 34 mm^3
mean tumor volume in the animals that developed tumors (LNCaP tumor cells; 1 mg/mouse/day ip): 4 mm^3
tumor incidence (compared to vehicle) (LNCaP tumor cells; 1 mg/mouse/day ip, p=0.006, n=11): significant reduction in tumor incidence
mean tumor volume in the animals that developed tumors (LNCaP tumor cells; 4 mg/mouse/day ip): 0 mm^3
tumor incidence (compared to vehicle) (LNCaP tumor cells; 4 mg/mouse/day ip, p<0.001, n=12): significant reduction in tumor incidence
tumor volume (LNCaP tumor cells; all three dose groups (4, 1, 0.4 mg/mouse/day ip, 28 days)): decreases in tumor volume apparent
time to a measurable tumor volume (LNCaP tumor cells; three treated groups (4, 1, 0.4 mg/mouse/day ip), p<0.01): statistically significant delay
mice with a tumor that became non-measurable by Day 15 (established LNCaP tumors): two
growth of established tumors (tumor volume) (established LNCaP tumors; tumors 15-25 mm^3 at start, p<0.001 vs vehicle): significantly blocked the growth of tumors
percent of mice that reduced their tumor volumes by 20% or more (established LNCaP tumors; vs vehicle, p<0.0294): significantly greater percent of mice
number of cells in G1 (LNCaP Cells [1]): rise in the number of cells in G1
percentage of apoptotic LNCaP cells (LNCaP Cells [2]): increase in the percentage of apoptotic LNCaP cells
time to a new tumor as compared to vehicle ([3]; 28 consecutive days of treatment, 28 days of observation, p<0.001): longer time to a new tumor
time to new tumor compared with TAXOTERE ([3]; Compound 1 at 4 mg, p=0.042): outperformed TAXOTERE™
tumor burden by volume compared with vehicle ([3]; Day 7 on: p<0.001): less tumor burden than for the vehicle treated group
median time to new tumor ([3]; from first day of dosing, vehicle 10 days): at least 56 days
delay to the occurrence of a second tumor vs vehicle ([3]; from median times to new tumor): at least a five fold delay

C#C[C@]1(O)CC[C@H]2[C@@H]3CC[C@H]4C[C@H](O)CC[C@]4(C)[C@H]3CC[C@@]21C [Form I, 17α-ethynyl-5α-androstane-3α,17β-diol]
relative stability of polymorphic forms ([4]; methanol-water, slurry seeded with Forms IV-VIII, 5 da at about 65° C. or 7 da at about 5° C.): most stable polymorphic form in methanol-water

C#C[C@]1(O)CC[C@H]2[C@@H]3CC[C@H]4C[C@H](O)CC[C@]4(C)[C@H]3CC[C@@]21C [Form III, 17α-ethynyl-5α-androstane-3α,17β-diol]
conversion of crystalline form (XRPD) ([4]; dissolved in MeOH at 65° C., water added, cooled to 20° C. over 2 hours, also slurry in 1:1 or 3:1 methanol:water): has converted to Form I
relative thermodynamic stability of polymorphic forms ([5]; provided not exposed to methanol-water): most thermodynamically stable polymorphic form

C#C[C@]1(O)CC[C@H]2[C@@H]3CC[C@H]4C[C@H](O)CC[C@]4(C)[C@H]3CC[C@@]21C [Form V, 17α-ethynyl-5α-androstane-3α,17β-diol]
polymorphic transition on prolonged standing (XRPD reanalysis) ([6]; prolonged standing): undergone a polymorphic transition to Form III

C#C[C@]1(O)CC[C@H]2[C@@H]3CC[C@H]4C[C@H](O)CC[C@]4(C)[C@H]3CC[C@@]21C [Form VI, 17α-ethynyl-5α-androstane-3α,17β-diol]
desolvation on standing (DTA/TGA reanalysis) ([6]; prolonged standing at ambient temperature and pressure): no TGA weight loss and no desolvation events in DTA

C#C[C@]1(O)CC[C@H]2[C@@H]3CC[C@H]4C[C@H](O)CC[C@]4(C)[C@H]3CC[C@@]21C [amorphous Compound 1, 17-ethynyl-5α-androstane-3α,17β-diol]
conversion of amorphous material to crystalline form ([5]; vapor stressing at high humidity): will convert back to Form III

Source: patent US9314471B2, “Methods of preparing pharmaceutical solid state forms” (NeurMedix, Inc., priority 2008, dated 2016)
